Source: ChEMBL document CHEMBL5506004, “Optimizing drug-like properties of selective butyrylcholinesterase inhibitors for cognitive improvement: Enhancing aqueous solubility by disrupting molecular plane” (Eur J Med Chem, 2024)
In brackets after ≈: the same amount, converted by molar mass. Activity calls are given as the source filed them. The rule behind the calls is not given here.

How the values were obtained:
[1] = Solubility of compound in FaSSIF incubated for 24 hrs by HPLC analysis; type: ADME
Cholinesterase [2] = target: Cholinesterase (Equus caballus, UniProt P81908); test: Inhibition of horse serum BChE using BTC iodide as substrate preincubated for 5 mins followed by substrate addition measured after 2 mins by Ellman's method
[3] = Metabolic stability in human liver microsomes assessed as compound metabolism at 2 uM measured for 60 mins by LC-MS/MS analysis; type: ADME, Microsome; conditions: read-out: Drug metabolism
Cholinesterase [4] = target: Cholinesterase (Homo sapiens, UniProt P06276); test: Inhibition of human BChE using BTC iodide as substrate preincubated for 5 mins followed by substrate addition measured after 2 mins by Ellman's method
BV-2 [5] = test: Cytotoxicity against mouse BV-2 cells assessed as survival rate incubated for 24 hrs by MTT assay; type: functional, cell-based; conditions: BV-2, 24 h
HT-22 [6] = test: Neuroprotective activity against glutamate-induced excitotoxicity in mouse HT-22 cells assessed as cell viability at 1 to 10 uM pretreated for 1 hr followed by glutamate addition measured after 24 hrs by MTT assay; type: functional, cell-based; conditions: dose 1-10 µM, time 25.0 hrs
PC-12 [7] = test: Cytotoxicity against rat PC12 cells assessed as survival rate at 100 uM incubated for 24 hrs by MTT assay relative to control; type: functional; conditions: read-out: Survival
[8] = Permeability of compound at 50 ug/ml incubated for 18 hrs by PAMPA; type: ADME; conditions: dose 50 µg/ml, read-out: permeability
HT-22 [9] = test: Cytotoxicity against mouse HT-22 cells assessed as survival rate at 100 uM incubated for 24 hrs by MTT assay relative to control; type: functional; conditions: read-out: Survival
SH-SY5Y [10] = test: Cytotoxicity against human SH-SY5Y cells assessed as survival rate incubated for 24 hrs by MTT assay; type: functional, cell-based
PC-12 [11] = test: Neuroprotective activity in rat PC12 cells assessed as cell viability pretreated for 2 hrs followed by H2O2 addition measured after 24 hrs by MTT assay; type: functional, cell-based; conditions: time 26.0 hrs
[12] = Cytotoxicity against human L02 cells assessed as survival rate at 100 uM incubated for 24 hrs by MTT assay relative to control; type: toxicity, cell-based; conditions: read-out: Survival
[13] = Acute toxicity in ICR mouse assessed as animal death at 1 g/kg, IG; conditions: in vivo, po, 1000 mg/kg
[14] = Acute toxicity in ICR mouse assessed as animal growth at 1 g/kg, IG; conditions: in vivo, po, 1000 mg/kg
SH-SY5Y [15] = test: Cytotoxicity against human SH-SY5Y cells assessed as survival rate at 100 uM incubated for 24 hrs by MTT assay relative to control; type: functional; conditions: read-out: Survival
SH-SY5Y [16] = test: Neuroprotective activity against amyloid beta (1 to 42)-induced neuronal death in human SH-SY5Y cells assessed as cell viability pretreated for 1 hr followed by amyloid beta (1 to 42) addition measured after 24 hrs by MTT assay; type: functional, cell-based; conditions: dose 1-10 µM, time 25.0 hrs
BV-2 [17] = test: Cytotoxicity against mouse BV-2 cells assessed as survival rate at 100 uM incubated for 24 hrs by MTT assay relative to control; type: functional; conditions: read-out: Survival
[18] = Metabolic stability in human liver microsomes assessed as compound remaining at 2 uM measured after 12.8 mins by LC-MS/MS analysis; type: ADME, Microsome; conditions: read-out: Activity
Mus musculus [19] = test: Cognitive enhancing effect in Amyloid beta (1 to 42)-treated ICR mouse assessed as shorter arrival time at 10 mg/kg, po administered daily measured after 7 to 12 days by Morris water maze test; type: functional, organism-based; conditions: time 7-12 day
Mus musculus [20] = test: Cognitive enhancing effect in Amyloid beta (1 to 42)-treated ICR mouse assessed as reduction in trajectory uncertainty at 10 mg/kg, po administered daily measured after 7 to 12 days by Morris water maze test; type: functional, organism-based; conditions: time 7-12 day
[21] = AUC (0 to t) in Sprague-Dawley rat at 10 mg/kg, po measured for 1 to 1440 mins by LC-MS/MS analysis; type: ADME, organism-based; conditions: in vivo, time 1-1440 min
[22] = MRT (infinity) in Sprague-Dawley rat at 10 mg/kg, po measured for 1 to 1440 mins by LC-MS/MS analysis; type: ADME, organism-based; conditions: in vivo, time 1-1440 min
[23] = AUC (0 to infinity) in Sprague-Dawley rat at 10 mg/kg, po measured for 1 to 1440 mins by LC-MS/MS analysis; type: ADME, organism-based; conditions: in vivo, time 1-1440 min
[24] = Oral bioavailability in Sprague-Dawley rat at 10 mg/kg measured for 1 to 1440 mins by LC-MS/MS analysis; type: ADME, organism-based; conditions: in vivo, time 1-1440 min
[25] = Half life in Sprague-Dawley rat at 10 mg/kg, po measured for 1 to 1440 mins by LC-MS/MS analysis; type: ADME, organism-based; conditions: in vivo, time 1-1440 min
[26] = Cmax in Sprague-Dawley rat at 10 mg/kg, po measured for 1 to 1440 mins by LC-MS/MS analysis; type: ADME, organism-based; conditions: in vivo, po, 10 mg/kg, time 1-1440 min
[27] = Tmax in Sprague-Dawley rat at 10 mg/kg, po measured for 1 to 1440 mins by LC-MS/MS analysis; type: ADME, organism-based; conditions: in vivo, time 1-1440 min

Chain of Cholinesterase (Homo sapiens, UniProt P06276) (P06276 whole entry): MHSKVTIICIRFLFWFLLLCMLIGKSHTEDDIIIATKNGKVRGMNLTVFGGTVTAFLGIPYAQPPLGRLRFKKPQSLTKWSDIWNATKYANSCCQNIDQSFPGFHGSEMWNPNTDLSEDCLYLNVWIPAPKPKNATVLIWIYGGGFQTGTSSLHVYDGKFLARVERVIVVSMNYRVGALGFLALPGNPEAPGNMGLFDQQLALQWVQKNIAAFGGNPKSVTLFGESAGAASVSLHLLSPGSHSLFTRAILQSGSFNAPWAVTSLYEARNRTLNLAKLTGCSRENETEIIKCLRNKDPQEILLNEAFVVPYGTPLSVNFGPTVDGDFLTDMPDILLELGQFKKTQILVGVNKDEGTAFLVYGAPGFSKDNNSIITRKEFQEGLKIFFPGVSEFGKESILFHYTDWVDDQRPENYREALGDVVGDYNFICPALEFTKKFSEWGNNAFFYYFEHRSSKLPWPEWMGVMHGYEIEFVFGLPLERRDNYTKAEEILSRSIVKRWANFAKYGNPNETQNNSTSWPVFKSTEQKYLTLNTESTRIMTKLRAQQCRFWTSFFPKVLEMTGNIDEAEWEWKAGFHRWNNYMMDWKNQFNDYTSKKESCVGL
Chain of Cholinesterase (Equus caballus, UniProt P81908) (P81908 whole entry): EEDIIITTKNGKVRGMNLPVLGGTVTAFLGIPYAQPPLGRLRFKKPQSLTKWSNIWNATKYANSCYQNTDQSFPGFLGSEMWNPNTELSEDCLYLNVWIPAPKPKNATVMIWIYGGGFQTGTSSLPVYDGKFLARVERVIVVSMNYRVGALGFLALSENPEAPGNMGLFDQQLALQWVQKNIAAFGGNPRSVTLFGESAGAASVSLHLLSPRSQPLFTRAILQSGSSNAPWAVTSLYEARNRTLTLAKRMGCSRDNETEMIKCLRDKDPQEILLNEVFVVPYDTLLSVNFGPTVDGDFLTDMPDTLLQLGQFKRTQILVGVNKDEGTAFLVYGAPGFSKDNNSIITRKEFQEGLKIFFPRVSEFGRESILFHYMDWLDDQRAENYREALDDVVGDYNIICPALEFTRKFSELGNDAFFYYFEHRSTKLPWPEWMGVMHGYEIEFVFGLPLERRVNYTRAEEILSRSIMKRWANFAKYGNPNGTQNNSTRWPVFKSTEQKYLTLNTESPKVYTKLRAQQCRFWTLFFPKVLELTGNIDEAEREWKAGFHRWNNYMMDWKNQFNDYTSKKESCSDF

Structure (SMILES)	solubility at 24 h [1] [µM]	IC50 (Cholinesterase [2]) [nM]	further results
CN1CCN(c2ccc(NC(=O)Cn3c(-c4nonc4N)nc4ccccc43)cc2)CC1	1360 (≈ 588 µg/mL)	92.3	
CN1CCN(c2cccc(NC(=O)Cn3c(-c4nonc4N)nc4ccccc43)c2)CC1	2820 (≈ 1220 µg/mL)	19.4	metabolised at 1 h, 2 µM [3]: < 15%; IC50 (Cholinesterase [4]): 121 nM; IC50 (BV-2 [5]): 17000 nM; Activity (HT-22 [6]): Active; viability at 100 µM (PC-12 [7]): 82.6%; Papp at 18 h, 50 ug/ml [8]: 3.57 ×10⁻⁶ cm/s; viability at 100 µM (HT-22 [9]): 89.5%; IC50 (SH-SY5Y [10]): 10300 nM; Activity (PC-12 [11]): Dose-Dependent Effect; viability at 24 h, 100 µM [12]: 102%; Activity [13]: Non-Toxic; Activity [14]: Non-Toxic
CN1CCN(Cc2ccc(NC(=O)Cn3c(-c4nonc4N)nc4ccccc43)cc2)CC1	2660 (≈ 1190 µg/mL)	99.8	
Nc1nonc1-c1nc2ccccc2n1CC(=O)Nc1cncc(C(F)(F)F)c1	660 (≈ 266 µg/mL)	94.5	
COC(=O)c1ccnc(NC(=O)Cn2c(-c3nonc3N)nc3ccccc32)c1	175 (≈ 68.8 µg/mL)	33.1	
Nc1nonc1-c1nc2ccccc2n1CC(=O)Nc1ccc(CN2CCOCC2)cc1	3050 (≈ 1320 µg/mL)	14	metabolised at 1 h, 2 µM [3]: < 15%; IC50 (Cholinesterase [4]): 106 nM; viability at 100 µM (PC-12 [7]): 101%; Papp at 18 h, 50 ug/ml [8]: 5.38 ×10⁻⁶ cm/s; viability at 100 µM (HT-22 [9]): 66.5%; viability at 100 µM (SH-SY5Y [15]): 131%; Activity (PC-12 [11]): Dose-Dependent Effect; viability at 24 h, 100 µM [12]: 114%; Activity (SH-SY5Y [16]): Dose-Dependent Effect; Activity [13]: Non-Toxic; Activity [14]: Non-Toxic; viability at 100 µM (BV-2 [17]): 78.2%
Nc1nonc1-c1nc2ccccc2n1CC(=O)Nc1ccccn1	322 (≈ 108 µg/mL)	1320	
Nc1c2c(nc3ccccc13)CCCC2 [TACRINE]	1440 (≈ 285 µg/mL)		
C[C@]12CC[C@H]3[C@@H](CCC4=CC(=O)CC[C@@]43C)[C@@H]1CC[C@@H]2O [TESTOSTERONE]			remaining at 0.2133 h, 2 µM [18]: 50%
Nc1nonc1-c1nc2ccccc2n1CC(=O)Nc1ccc(N2CCCCC2)cc1	86.2 (≈ 36 µg/mL)	168	
CN1CCN(C(=O)c2ccc(NC(=O)Cn3c(-c4nonc4N)nc4ccccc43)cc2)CC1	1020 (≈ 471 µg/mL)	84	
Nc1nonc1-c1nc2ccccc2n1CC(=O)Nc1cccnc1	373 (≈ 125 µg/mL)	154	
Nc1nonc1-c1nc2ccccc2n1CC(=O)Nc1ccncc1	474 (≈ 159 µg/mL)	172	
Nc1nonc1-c1nc2ccccc2n1CC(=O)Nc1cncc(F)c1	512 (≈ 181 µg/mL)	99.4	
COC(=O)c1cncc(NC(=O)Cn2c(-c3nonc3N)nc3ccccc32)c1	211 (≈ 83 µg/mL)	43	
COc1cc2c(cc1OC)C(=O)C(CC1CCN(Cc3ccccc3)CC1)C2 (configuration not stated)			Activity (Mus musculus [19]): Active; Activity (Mus musculus [20]): Active
Nc1nonc1-c1nc2ccccc2n1CC(=O)Nc1ccc(N2CCOCC2)cc1	861 (≈ 361 µg/mL)	481	

Structure (SMILES)	solubility at 24 h [1] [µM]	IC50 (Cholinesterase [2]) [nM]	further results
Nc1nonc1-c1nc2ccccc2n1CC(=O)Nc1cccc(N2CCOCC2)c1	1270 (≈ 534 µg/mL)	49.5	
CN1CCN(c2ccccc2NC(=O)Cn2c(-c3nonc3N)nc3ccccc32)CC1	483 (≈ 209 µg/mL)	524	
N#Cc1cc(Br)cc(NC(=O)Cn2c(-c3nonc3N)nc3ccccc32)c1	379 (≈ 166 µg/mL)		AUC(0-t) [21]: 3360 ng·h/mL; MRT inf [22]: 7.37 h; AUC(0-inf) [23]: 3780 ng·h/mL; bioavailability [24]: 23.6%; half-life [25]: 4.74 h; Cmax [26]: 975.05 ng/mL; Tmax [27]: 0.18 h
Nc1nonc1-c1nc2ccccc2n1CC(=O)Nc1cncc(Cl)c1	462 (≈ 171 µg/mL)	31.6	
Nc1nonc1-c1nc2ccccc2n1CC(=O)Nc1ccc(CC(=O)N2CCOCC2)cc1	951 (≈ 439 µg/mL)	123	
Nc1nonc1-c1nc2ccccc2n1CC(=O)Nc1cccc(N2CCCCC2)c1	74.3 (≈ 31 µg/mL)	4.71	IC50 (Cholinesterase [4]): 21.2 nM
Nc1nonc1-c1nc2ccccc2n1CC(=O)Nc1cccc(C(=O)O)c1	≥ 5290	1970	
Nc1nonc1-c1nc2ccccc2n1CC(=O)Nc1cccc(CC(=O)N2CCOCC2)c1	728 (≈ 336 µg/mL)	193	
Nc1nonc1-c1nc2ccccc2n1CC(=O)Nc1ccc(C(=O)N2CCOCC2)cc1	467 (≈ 209 µg/mL)	67	
Nc1nonc1-c1nc2ccccc2n1CC(=O)Nc1cncc(Br)c1	476 (≈ 197 µg/mL)	15.4	IC50 (Cholinesterase [4]): 119 nM
CN1CCN(C(=O)Cc2cccc(NC(=O)Cn3c(-c4nonc4N)nc4ccccc43)c2)CC1	1330 (≈ 631 µg/mL)	1940	
Nc1nonc1-c1nc2ccccc2n1CC(=O)NC1CCCCC1	232 (≈ 79 µg/mL)	3520	
Nc1nonc1-c1nc2ccccc2n1CC(=O)Nc1ccccc1N1CCOCC1	536 (≈ 225 µg/mL)	2470	
CN1CCN(C(=O)Cc2ccc(NC(=O)Cn3c(-c4nonc4N)nc4ccccc43)cc2)CC1	1770 (≈ 842 µg/mL)	609	
Nc1nonc1-c1nc2ccccc2n1CC(=O)Nc1cccc(N2CCCC2)c1	104 (≈ 42 µg/mL)	5.57	IC50 (Cholinesterase [4]): 2.26 nM
Nc1nonc1-c1nc2ccccc2n1CC(=O)Nc1cnc2ccccc2c1	231 (≈ 89 µg/mL)		Tmax [27]: 0.158 h
